According to article PMC13224317 (SLAS discovery : advancing life sciences R & D, 2025):
“And” between values parts separate entries of the source, which are not always exact repeats. Identical values can stand only once. Like-named read-outs stand apart in the source and are kept apart here.

Columns and labels:
icSARS-CoV-2-nLuc [1] = test: microbe, parasite or virus in culture; format: cell-based, SARS-CoV-2
icSARS-CoV-2-nLuc [2] = test: microbe, parasite or virus in culture; format: cell-based, SARS-CoV-2; conditions: Severe acute respiratory syndrome coronavirus 2, 48 h, read-out: IC50 against icSARS-CoV-2-nLuc, immunofluorescence data
icSARS-CoV-2-nLuc [3] = format: cell-based, SARS-CoV-2
icSARS-CoV-2-nLuc [4] = format: cell-based, SARS-CoV-2; remark: listed apart in the source
C3 cell line = test: Cytotoxicity toward the C3 cell line (single point at 10 μM and CC50); format: cell-based; conditions: raw well reading, duplicate wells
Experimental: The rate of false positive hits was 2.5% between the two biological replicates. […] The 3 compounds have CC50 equal to- or higher than 36 μM. Based on available information, these three compounds have not been tested against SARS-CoV-2 nor have any reports of antiviral activity, and therefore warrant further investigation.

[5] = Severe acute respiratory syndrome coronavirus 2, A549-ACE2, read-out: IC50, susceptibility of icSARS-CoV-2-nLuc to reference drugs, luminescence readout

Compound: CC(C)(C)NC(=O)N[C@H](C(=O)N1C[C@H]2[C@@H]([C@H]1C(=O)NC(CC1CCC1)C(=O)C(N)=O)C2(C)C)C(C)(C)C (some centres unmarked) [Boceprelvir, Boceprevir]
- IC50 (icSARS-CoV-2-nLuc [1]; [5]): 3000 nM
- raw nLuc luminescence signal per well, dose response (icSARS-CoV-2-nLuc [1]; concentration 0.444444 µM): 1318016 and 1552909 and 1027714 and 1937158 and 1341520 and 1697592 and 1866146 and 1427750
- raw nLuc luminescence signal per well, dose response (icSARS-CoV-2-nLuc [1]; concentration 1.33333 µM): 1081320 and 1354101 and 1808712 and 2111860 and 1262757 and 1236512 and 1094043 and 1751641
- raw nLuc luminescence signal per well, dose response (icSARS-CoV-2-nLuc [1]; concentration 12 µM): 325338 and 397893 and 288277 and 313675 and 434098 and 457388 and 421160 and 498406
- raw nLuc luminescence signal per well, dose response (icSARS-CoV-2-nLuc [1]; concentration 36 µM): 152331 and 158422 and 131796 and 134954 and 143730 and 155578 and 143192 and 145460

Compound: CC(C)(C)[C@H](NC(=O)C(F)(F)F)C(=O)N1C[C@H]2[C@@H]([C@H]1C(=O)N[C@H](C#N)C[C@@H]1CCNC1=O)C2(C)C [Nirmatrelvir]
- IC50 (icSARS-CoV-2-nLuc [1]; [5]): 30 nM
- raw nLuc luminescence signal per well, dose response (icSARS-CoV-2-nLuc [1]; concentration 0.148148 µM): 129461 and 120874 and 136852 and 130464 and 147289 and 142579 and 149179 and 144629
- raw nLuc luminescence signal per well, dose response (icSARS-CoV-2-nLuc [1]; concentration 0.444444 µM): 144250 and 143681 and 125477 and 126336 and 137581 and 142321 and 138240 and 131508
- raw nLuc luminescence signal per well, dose response (icSARS-CoV-2-nLuc [1]; concentration 1.33333 µM): 118306 and 118449 and 125083 and 124306 and 125230 and 130577 and 130784 and 122912
- raw nLuc luminescence signal per well, dose response (icSARS-CoV-2-nLuc [1]; concentration 4 µM): 141288 and 139348 and 122581 and 121573 and 133806 and 135394 and 143645 and 132419
- raw nLuc luminescence signal per well, dose response (icSARS-CoV-2-nLuc [1]; concentration 12 µM): 120474 and 114610 and 123671 and 120946 and 130686 and 127115 and 126419 and 123917
- raw nLuc luminescence signal per well, dose response (icSARS-CoV-2-nLuc [1]; concentration 36 µM): 145649 and 139944 and 128235 and 120973 and 144302 and 134374 and 139812 and 128239

Compound: CC(C)C(=O)OC[C@H]1O[C@@H](n2ccc(NO)nc2=O)[C@H](O)[C@@H]1O [Molnupiravir]
- IC50 (icSARS-CoV-2-nLuc [1]; [5]): 1200 nM
- raw nLuc luminescence signal per well, dose response (icSARS-CoV-2-nLuc [1]; concentration 4 µM): 595475 and 830276 and 640577 and 536261 and 913575 and 492391 and 665617 and 629700
- raw nLuc luminescence signal per well, dose response (icSARS-CoV-2-nLuc [1]; concentration 12 µM): 258630 and 294602 and 224846 and 411089 and 320496 and 281484 and 318686 and 264637
- raw nLuc luminescence signal per well, dose response (icSARS-CoV-2-nLuc [1]; concentration 36 µM): 206765 and 173526 and 155560 and 157303 and 194898 and 197104 and 194373 and 153593

Compound: CCC(CC)COC(=O)[C@H](C)N[P@](=O)(OC[C@H]1O[C@@](C#N)(c2ccc3c(N)ncnn23)[C@H](O)[C@@H]1O)Oc1ccccc1 [REM, Remdesivir]
- IC50 (icSARS-CoV-2-nLuc [2]): 110 nM
- antiviral activity (raw luminescence signal per well) (icSARS-CoV-2-nLuc [1]): 150661 and 137685 and 146593 and 141302
- IC50 (icSARS-CoV-2-nLuc [1]; Severe acute respiratory syndrome coronavirus 2, A549-ACE2, 24 h, read-out: IC50 against icSARS-CoV-2-nLuc, luminescence data): 110 nM
- inhibition at 10 µM (icSARS-CoV-2-nLuc [1]; Severe acute respiratory syndrome coronavirus 2, A549-ACE2, 24 h, read-out: inhibition of the virus growth, single point screening): ≥ 90%
- raw nLuc luminescence signal per well, dose response (icSARS-CoV-2-nLuc [1]; concentration 0.444444 µM): 158425 and 172179 and 190756 and 205337
- raw nLuc luminescence signal per well, dose response (icSARS-CoV-2-nLuc [1]; concentration 4 µM): 140393 and 141108 and 138540
- raw nLuc luminescence signal per well, dose response (icSARS-CoV-2-nLuc [1]; concentration 36 µM): 142704 and 141754 and 139812
- %Spec (icSARS-CoV-2-nLuc [3]): 89.5% and 90.0% and 90.1%
- Luminescence signal, Mean (Low signal) (icSARS-CoV-2-nLuc [3]): 181028.44 and 176326.81 and 171413.00
- Luminescence signal, Mean (Mid signal) (icSARS-CoV-2-nLuc [3]): 237318.53 and 220683.44 and 197501.22
- Low (luminescence signal) (icSARS-CoV-2-nLuc [4]): 335845.000 and 285428.000 and 332082.000 and 282797.000
- Mid % (icSARS-CoV-2-nLuc [4]): 82.63% and 75.37% and 74.20% and 71.84%
- Mid (luminescence signal) (icSARS-CoV-2-nLuc [4]): 685741.000 and 855540.000 and 882878.000 and 938084.000
- Midpc (icSARS-CoV-2-nLuc [4]): 82.63 and 75.37 and 74.20 and 71.84
- MMV hits Cytotoxicity testing, raw plate signal (C3 cell line; REM 0.0175781 µM): 281684 and 292421
- MMV hits Cytotoxicity testing, raw plate signal (C3 cell line; REM 0.0351562 µM): 291406 and 276805
- MMV hits Cytotoxicity testing, raw plate signal (C3 cell line; REM 0.0703125 µM): 281356 and 294787
- MMV hits Cytotoxicity testing, raw plate signal (C3 cell line; REM 0.140625 µM): 287615 and 296564
- MMV hits Cytotoxicity testing, raw plate signal (C3 cell line; REM 0.28125 µM): 294079 and 296093
- MMV hits Cytotoxicity testing, raw plate signal (C3 cell line; REM 0.5625 µM): 294522 and 291744
- MMV hits Cytotoxicity testing, raw plate signal (C3 cell line; REM 1.125 µM): 302792 and 294805
- MMV hits Cytotoxicity testing, raw plate signal (C3 cell line; REM 2.25 µM): 325677 and 303163
- MMV hits Cytotoxicity testing, raw plate signal (C3 cell line; REM 4.5 µM): 318660 and 288026

Compound: CC(C)c1nc(CN(C)C(=O)N[C@H](C(=O)N[C@@H](Cc2ccccc2)C[C@H](O)[C@H](Cc2ccccc2)NC(=O)OCc2cncs2)C(C)C)cs1 [Ritonavir]
- IC50 (icSARS-CoV-2-nLuc [1]; [5]): 7200 nM
- raw nLuc luminescence signal per well, dose response (icSARS-CoV-2-nLuc [1]; concentration 0.444444 µM): 2035673 and 1546345 and 1888256 and 1167395 and 1955627 and 1676062 and 1569839 and 1463523
- raw nLuc luminescence signal per well, dose response (icSARS-CoV-2-nLuc [1]; concentration 4 µM): 1601511 and 1681837 and 928783 and 1028382 and 1282975 and 1526902 and 1006334 and 1132442
- raw nLuc luminescence signal per well, dose response (icSARS-CoV-2-nLuc [1]; concentration 36 µM): 183316 and 177778 and 167818 and 167859 and 159406 and 217854 and 184869 and 201752

Compound: CCCC[C@H](NC(=O)[C@@H]1[C@@H]2[C@H](CN1C(=O)[C@@H](NC(=O)NC1(CS(=O)(=O)C(C)(C)C)CCCCC1)C(C)(C)C)C2(C)C)C(=O)C(=O)NC1CC1 [Naraprelvir]
- raw nLuc luminescence signal per well, dose response (icSARS-CoV-2-nLuc [1]; concentration 0.00548697 µM): 1369356 and 1475085 and 1731318 and 2527784 and 1481798 and 1643468 and 2199354 and 1849240
- raw nLuc luminescence signal per well, dose response (icSARS-CoV-2-nLuc [1]; concentration 0.0493827 µM): 1943993 and 1719572 and 1531026 and 1265407 and 2037762 and 2296036 and 2164802 and 2297300
- raw nLuc luminescence signal per well, dose response (icSARS-CoV-2-nLuc [1]; concentration 36 µM): 156020 and 155359 and 134274 and 128833 and 143226 and 151190 and 148617 and 136366

Compound: CCCC[C@H](NC(=O)[C@@H]1[C@@H]2[C@H](CN1C(=O)[C@@H](NC(=O)NC1(CS(=O)(=O)C(C)(C)C)CCCCC1)C(C)(C)C)C2(C)C)C(=O)C(=O)NC1CC1 [Narlaprevir]
- IC50 (icSARS-CoV-2-nLuc [1]; [5]): 2000 nM
